# According to US8729062B2, “Benzyl azetidine derivatives as sphingosine 1-phosphate (S1P) receptor modulators” (Allergan, Inc., priority 2010, dated 2014):
# pEC50: −log10 of the molar value.
# Target: T1, human S1P1 receptor (Homo sapiens, UniProt P21453)
# T1 construct: expressed in transfected cells; membranes used
# Assay: GTP γ35S binding assay for S1P1 activity
# Type: biochemical
# Settings: membranes of cells stably expressing S1P1 receptor, agonist potency, test range 0.08 to 5,000 nM
# Experimental: Compounds were synthesized and tested for S1P1 activity using the GTP γ^35S binding assay. These compounds may be assessed for their ability to activate or block activation of the human S1P1 receptor in cells stably expressing the S1P1 receptor.
# GTP γ^35S binding was measured in the medium containing (mM) HEPES 25, pH 7.4, MgCl2 10, NaCl 100, dithitothreitol 0.5, digitonin 0.003%, 0.2 nM GTP γ^35S, and 5 μg membrane protein in a volume of 150 μl. Test compounds were included in the concentration range from 0.08 to 5,000 nM unless indicated otherwise. Membranes were incubated with 100 μM 5′-adenylylimmidodiphosphate for 30 min, and subsequently with 10 μM GDP for 10 min on ice. Drug solutions and membrane were mixed, and then reactions were initiated by adding GTP γ^35S and continued for 30 min at 25° C. Reaction mixtures were filtered over Whatman GF/B filters under vacuum, and washed three times with 3 mL of ice-cold buffer (HEPES 25, pH7.4, MgCl2 10 and NaCl 100). Filters were dried and mixed with scintillant, and counted for ^35S activity using a […]. Agonist-induced GTP γ^35S binding was obtained by subtracting that in the absence of agonist. Binding data were analyzed using a non-linear regression method. In case of antagonist assay, the reaction mixture contained 10 nM S1P in the presence of test antagonist at concentrations ranging from 0.08 to 5000 nM.
# T1 sequence (P21453 whole entry): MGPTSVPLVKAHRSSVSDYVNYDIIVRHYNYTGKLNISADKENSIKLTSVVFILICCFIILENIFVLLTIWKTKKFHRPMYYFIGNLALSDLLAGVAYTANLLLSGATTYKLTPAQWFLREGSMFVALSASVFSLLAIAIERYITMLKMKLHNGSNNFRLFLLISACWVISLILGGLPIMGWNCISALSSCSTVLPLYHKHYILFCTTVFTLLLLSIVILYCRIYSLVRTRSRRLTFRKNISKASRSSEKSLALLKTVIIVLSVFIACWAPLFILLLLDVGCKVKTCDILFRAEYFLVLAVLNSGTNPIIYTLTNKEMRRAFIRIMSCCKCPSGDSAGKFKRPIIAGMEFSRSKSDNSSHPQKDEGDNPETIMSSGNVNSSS
row,pEC50,Structure (SMILES)
1,7.12,"Cc1ccc(CC(c2ccsc2)c2nc(-c3ccc(CN4CC(C(=O)O)C4)cc3)no2)cc1C (centres unmarked) [1-(4-{5-[2-(3,4-dimethylphenyl)-1-(3-thienyl)ethyl]-1,2,4-oxadiazol-3-yl}benzyl)azetidine-3-carboxylic acid]"
2,7.05,"Cc1ccc(CC(c2cccc(C(F)(F)F)c2)c2nc(-c3ccc(CN4CC(C(=O)O)C4)cc3)no2)cc1C (centres unmarked) [1-[4-(5-{2-(3,4-dimethylphenyl)-1-[3-(trifluoromethyl)phenyl]ethyl}-1,2,4-oxadiazol-3-yl)benzyl]azetidine-3-carboxylic acid]"
3,6.87,"Cc1ccc(CC(c2nc(-c3ccc(CN4CC(C(=O)O)C4)cc3)no2)c2cccs2)cc1C (centres unmarked) [1-(4-{5-[2-(3,4-dimethylphenyl)-1-(2-thienyl)ethyl]-1,2,4-oxadiazol-3-yl}benzyl)azetidine-3-carboxylic acid]"
4,6.27,"Cc1cc(C)cc(C(Cc2ccc(C)c(C)c2)c2nc(-c3ccc(CN4CC(C(=O)O)C4)cc3)no2)c1 (centres unmarked) [1-(4-{5-[2-(3,4-dimethylphenyl)-1-(3,5-dimethylphenyl)ethyl]-1,2,4-oxadiazol-3-yl}benzyl)azetidine-3-carboxylic acid]"
5,6.84,"Cc1ccc(CC(c2ccsc2)c2nc(-c3ccc(CN4CC(C(=O)O)C4)cc3)no2)cc1 (centres unmarked) [1-(4-{5-[2-(4-methylphenyl)-1-(3-thienyl)ethyl]-1,2,4-oxadiazol-3-yl}benzyl)azetidine-3-carboxylic acid]"
6,7.52,"Cc1ccc(CC(c2cncc(Cl)c2)c2nc(-c3ccc(CN4CC(C(=O)O)C4)cc3)no2)cc1C (centres unmarked) [1-(4-{5-[1-(5-chloropyridin-3-yl)-2-(3,4-dimethylphenyl)ethyl]-1,2,4-oxadiazol-3-yl}benzyl)azetidine-3-carboxylic acid]"
7,7.77,"Cc1ccc(CC(c2cc(F)cc(F)c2)c2nc(-c3ccc(CN4CC(C(=O)O)C4)cc3)no2)cc1C (centres unmarked) [1-(4-{5-[1-(3,5-difluorophenyl)-2-(3,4-dimethylphenyl)ethyl]-1,2,4-oxadiazol-3-yl}benzyl)azetidine-3-carboxylic acid]"
8,8.82,"Cc1ccc(CC(c2cccc(F)c2)c2nc(-c3ccc(CN4CC(C(=O)O)C4)cc3)no2)cc1C (centres unmarked) [Compound 2, 1-(4-{5-[1-(3-fluorophenyl)-2-(3,4-dimethylphenyl)ethyl]-1,2,4-oxadiazol-3-yl}benzyl)azetidine-3-carboxylic acid]"
9,6.68,"Cc1ccc(CC(c2nc(-c3ccc(CN4CC(C(=O)O)C4)cc3)no2)c2cccs2)cc1 (centres unmarked) [1-(4-{5-[2-(4-methylphenyl)-1-(2-thienyl)ethyl]-1,2,4-oxadiazol-3-yl}benzyl)azetidine-3-carboxylic acid]"
10,5.91,"O=C(O)C1CN(Cc2ccc(-c3noc(C(CC4CCCCC4)c4cccc(Cl)c4)n3)cc2)C1 (centres unmarked) [1-(4-{5-[1-(3-chlorophenyl)-2-cyclohexylethyl]-1,2,4-oxadiazol-3-yl}benzyl)azetidine-3-carboxylic acid]"
11,8.42,"Cc1ccc(CC(c2cccc(Cl)c2)c2nc(-c3ccc(CN4CC(C(=O)O)C4)cc3)no2)cc1C (centres unmarked) [Compound 1, 1-(4-{5-[1-(3-Chlorophenyl)-2-(3,4-dimethylphenyl)ethyl]-1,2,4-oxadiazol-3-yl}benzyl)azetidine-3-carboxylic acid]"
